Source: patent publication US7053175B1, “Synthetic peptides useful in biological assays for detecting infections caused by group O HIV-1 viruses” (Bio-Rad Pasteur, priority 1997, dated 2006)
No end group written: not given here.

Test system: sera from patients infected with group O HIV-1 retroviruses
Experiment: Immunoenzymatic test: Test No. 1 (immunoreactivity of peptides coated on microplates)
Format: binding, human
Design: key to ABSORBANCE: >: signal greater than the reading capacity of the spectrophotometer
Conditions: cyclized peptide 2 μg/ml
Procedure: The sera used ESS, DUR, VAU and HAD are sera from French patients infected with group O HIV-1 retroviruses. The other serum samples from patients infected with group O HIV-1 retroviruses were obtained by the Yaoundé Pasteur Centre in Cameroon and were serotyped group O according to the serological algorithm described in AIDS (1977), 11, pp 445-453.
The HIV-negative sera (n=48) were obtained from healthy volunteers.
The synthetic peptides used were dissolved in water at a concentration of 1 mg/ml (stock solution). For the solid phase sensitization step (coating), 110 μl of a solution at 2 μg/ml of each peptide (obtained by diluting the stock solution with 0.1 M carbonate buffer solution) were added to each well of the microtitre plates Microtiter™ (NUNC). After incubating overnight at room temperature, the microplates were first washed with a Tris-NaCl buffer solution pH 7.4 containing 0.1% of Tween® 20 and 0.001% sodium merthiolate, and then saturated with a PBS solution containing 0.5% of Régilait™ (dried skimmed milk). After aspirating the saturating solution, the plates were heated for 10 min at 50° C.
The serum samples were diluted 1/5 with a skimmed milk solution (citrate buffer supplemented with 0.01% of phenol red, 0.25% of chloroform and 0.25% of Kathon®), deposited in the wells of the plates and incubated for 30 min at 40° C.
After washing with a Tris-NaCl buffer solution pH 7.4 containing 0.1% of Tween® 20 and 0.001% of sodium merthiolate, 100 μl of a solution of conjugate consisting of horseradish peroxidase-labelled anti-human IgG and IgM goat antibodies, containing as preservative 0.01% of sodium merthiolate, in solution in a citrate buffer solution supplemented with 30% glycerol and 25% normal foetal calf serum, were added to each plate well and then the plates were incubated for 30 min at 40° C.
After washing with a Tris-NaCl buffer solution pH 7.4 containing 0.1% of Tween® 20 and 0.001% of sodium merthiolate, the colour was developed by adding, to each well, 100 μl of O-phenylenediamine in solution in hydrogen peroxide. The microplates were then incubated for 30 min at room temperature and in the dark. The coloured reaction was then stopped by addition of 100 μl of 4N sulphuric acid. The absorbance (A) was determined at 490 and 620 nm.
The relative absorbance (A490-A620) read in each well is proportional to the immunoreactivity of each peptide. It indicates the ability of each peptide to react with the biological sample with which the test is carried out. The cut-off value was determined as being an absorbance equal to 0.15. It corresponds to the mean of the negative values (n=48) plus 12 standard deviations.
The reactivity of the peptides of the invention (peptide No. 3 (4B), peptide No. 2 (3B) and peptide No. 1 (2B), all in cyclized form), was compared with that of two synthetic peptides having, as sequence, a portion of the natural sequence of the envelope (env) of the VAU isolate (group O HIV-1 retrovirus) and comprising an immunodominant epitope of gp41.
For the study, these peptides were used in cyclized form.

Measured: ABSORBANCE

LLNLWGCKNRAICYTSVKWNKT (cysteine pairing not given here) [VAU 22 AA, reference compound]
0.099: serum 1105*
0.359: serum 6891
2.491: serum 5969*
0.920: serum 7443
1.318: serum 4489*
0.050: serum 4021*
1.263: serum 1754
0.118: serum DUR*
2.511: serum 4477
1.267: serum 5453
2.337: serum 4288*
>: serum 134 | serum 402 | serum 625 | serum 1062 | serum 1702 | serum 2294 | serum 2312 | serum 2313 | serum 2352 | serum 2551 | serum 2700 | serum 3016 | serum 3136 | serum 3235 | serum 3236 | serum 3302 | serum 3482 | serum 3529 | serum 3600* | serum 3627* | serum 3771 | serum 3884* | serum 3891 | serum 3945 | serum 4364 | serum 5149* | serum 5164 | serum 5210 | serum 5270* | serum 5766* | serum 6111 | serum 6165 | serum 6198* | serum 6627 | serum 6689* | serum 6697 | serum 6976* | serum 6998 | serum 7007 | serum 7120 | serum 7212 | serum 7258* | serum 7297* | serum 7439 | serum ESS* | serum VAU*
2.889: serum 6487
1.441: serum 3653
2.190: serum 6782
0.138: serum 3935
0.789: serum HAD
0.972: serum 6295*
0.202: serum 5931
0.779: serum 3637
2.273: serum 4434
1.359: serum 5373
1.112: serum 1581
0.120: serum 6512*

RLLALETFIEENELLNLWGCKNRAICYTSVKWNKT (cysteine pairing not given here) [VAU 35 AA, reference compound]
0.871: serum HAD
1.482: serum 5453
1.647: serum 3637
0.574: serum 7443
1.322: serum 3653
0.174: serum 6512*
2.151: serum 7007
0.227: serum 3935
0.872: serum DUR*
0.129: serum 1105*
0.894: serum 1581
2.214: serum 6782
1.948: serum 1754
1.957: serum 4021*
1.718: serum 4489*
0.856: serum 5373
2.585: serum 625
2.225: serum 5931
2.891: serum 6487
0.496: serum 6891
>: serum 134 | serum 402 | serum 1062 | serum 1702 | serum 2294 | serum 2312 | serum 2313 | serum 2352 | serum 2551 | serum 2700 | serum 3016 | serum 3136 | serum 3235 | serum 3236 | serum 3302 | serum 3482 | serum 3529 | serum 3600* | serum 3627* | serum 3771 | serum 3884* | serum 3891 | serum 3945 | serum 4364 | serum 4434 | serum 4477 | serum 5149* | serum 5164 | serum 5210 | serum 5270* | serum 5766* | serum 5969* | serum 6111 | serum 6165 | serum 6198* | serum 6295* | serum 6627 | serum 6689* | serum 6697 | serum 6976* | serum 6998 | serum 7120 | serum 7212 | serum 7258* | serum 7297* | serum 7439 | serum ESS* | serum VAU*
